Patent US11345696B2, “Compounds and methods of treating or ameliorating an IL-1R-mediated disease or disorder using same” (DREXEL UNIVERSITY, priority 2014, dated 2022)

What was measured:
SSc fibroblasts = experiment: Total collagen (hydroxyproline) in culture media of SSc fibroblasts; format: cell-based; settings: for total collagen secretion into the culture media as measured by hydroxyproline: SSc dermal fibroblasts, 48 h, 100 μM or 10 μM compound (FIG. 5); for blocking collagen synthesis: in vitro, fibroblasts derived from scleroderma patients
Protocol: FIG. 5 is a set of graphs illustrating target validation studies. […] SSc dermal fibroblasts were treated for 48 h with 100 μM or 10 μM of compound, then media was collected and total collagen was measured by hydroxyproline. Samples were tested in triplicate across different patient samples and expressed as the mean±SEM (n=4). *p<0.0001, **p=0.02.
SSc fibroblasts were treated for 48 h with 1 nM compound, and then culture media was recovered and hydroxyproline was measured. Samples were tested in triplicate across different patient samples and expressed as the mean±SEM (n=3 independent patient samples).
SSc fibroblasts were cultured with selected molecules of the invention, and total collagen synthesis was assessed with hydroxyproline. […] KA862 and KA494 were selected for further in vitro evaluation.

[1] = test system: normal fibroblasts stimulated with bleomycin; experiment: Bleomycin induced fibrosis in vitro model: normal fibroblasts stimulated with bleomycin, hydroxyproline in culture media; format: cell-based; settings: for IC50: Fibroblast, decreasing concentrations of compound against 10 μM bleomycin, 48 h, hydroxyproline in culture media (FIG. 9); for blocking collagen synthesis: in vitro, normal fibroblasts stimulated with 10 μM bleomycin
Protocol: FIG. 7 is a set of bar graphs illustrating the finding that compounds of the invention are effective against bleomycin induced fibrosis in an in vitro model. Top graph: normal fibroblasts stimulated with bleomycin (Bleo)+IL-1RA (n=3); bottom graph: normal fibroblasts stimulated with Bleo+KA862 (n=3).
FIG. 9 is a set of graphs illustrating the IC50 determination for KA521, KA222, KA306, and KA695. Decreasing concentrations of compound were tested against 10 μM bleomycin for 48 h and hydroxyproline measured in the culture media.
Without wishing to be limited by any theory, designing a focused screening library allows for the identification of analogs with favorable drug-like properties and binding efficacy against IL-1R. Compounds of interest may be tested in vitro using patient-derived scleroderma fibroblasts, normal fibroblasts treated with bleomycin to increase collagen synthesis, and in vivo in scleroderma animal models.
FIG. 7 illustrates the finding that compounds of the invention are effective against bleomycin induced fibrosis. Normal fibroblasts were treated with bleomycin and either IL-1RA or a compound of the invention, so as to inhibit collagen.

SMILES | total collagen secretion into the culture media as measured by hydroxyproline (SSc fibroblasts) | IC50 [1] | blocking collagen synthesis (SSc fibroblasts) | blocking collagen synthesis [1]
O=C(CN(Cc1ccc2c(c1)OCO2)S(=O)(=O)c1ccc(S(=O)(=O)NC2CCCC2)cc1)Nc1ccccc1 [KA199, N^2-(1,3-benzodioxol-5-ylmethyl)-N^2-{[4-(cyclopentylsulfamoyl)phenyl]sulfonyl}-N-phenyl glycinamide] | effective at reducing total collagen secretion |  |  | 
Cc1nn(-c2ccccc2)c2c1C(c1c(O)ccc3ccccc13)C(C#N)=C(N)O2 (stereo not drawn) [KA222, 6-amino-4-(2-hydroxynaphthalen-1-yl)-3-methyl-1-phenyl-1,4-dihydropyrano[2,3-c]pyrazole-5-carbonitrile] |  | ~1 nM |  | 
COC(=O)C1=C(C)NC2=C(C(=O)CC(c3ccc(OC)c(OC)c3)C2)C1c1cccc2ccccc12 (stereo not drawn) [KA306, methyl 7-(3,4-dimethoxyphenyl)-2-methyl-4-(naphthalen-1-yl)-5-oxo-1,4,5,6,7,8-hexahydroquinoline-3-carboxylate] |  | ~1 nM |  | 
O=C(C[S+]([O-])CC(=O)N(CC(=O)NC1CCCCC1)c1cccc2ccccc12)Nc1ccc(F)cc1 (stereo not drawn) [KA494, N-(2-(cyclohexylamino)-2-oxoethyl)-2-((2-((4-fluorophenyl)amino)-2-oxoethyl)sulfinyl)-N-(naphthalen-1-yl)acetamide] | effective at reducing total collagen secretion |  | efficacious in blocking collagen synthesis | efficacious in blocking collagen synthesis
COc1cccc(NC(=O)Cn2nc(-c3ccncc3)nc2SCC(=O)NC2CCCC2)c1 [KA529, (2-[5-{[2-(cyclopentylamino)-2-oxoethyl]sulfanyl}-3-(4-pyridinyl)-1H-1,2,4-triazol-1-yl]-N-(3-methoxyphenyl)acetamide)] | effective at reducing total collagen secretion |  |  | 
O=C(C[S+]([O-])CC(=O)N(CC(=O)NC1CCCC1)Cc1ccccc1Cl)Nc1ccc2c(c1)OCO2 (stereo not drawn) [KA680, (N^2-({[2-(1,3-benzodioxol-5-ylamino)-2-oxoethyl]sulfinyl}acetyl)-N^2-(2-chlorobenzyl)-N-cyclopentylglycinamide)] | effective at reducing total collagen secretion |  |  | 
COCCOC(=O)C1=C(C)NC2=C(C(=O)CCC2)C1c1cccc2ccccc12 (stereo not drawn) [KA695, 2-methoxyethyl 2-methyl-4-(naphthalen-1-yl)-5-oxo-1,4,5,6,7,8-hexahydroquinoline-3-carboxylate] |  | ~1 nM |  | 
O=C(CSc1nnc(Cc2csc(Nc3cccc(Cl)c3)n2)n1Cc1ccco1)OC1CCCCC1 [KA862, cyclohexyl 2-((5-((2-((3-chlorophenyl)amino)thiazol-4-yl)methyl)-4-(furan-2-ylmethyl)-4H-1,2,4-triazol-3-yl)thio)acetate] | effective at reducing total collagen secretion |  | efficacious in blocking collagen synthesis | efficacious in blocking collagen synthesis
